Source: patent US8299064B2, “Fused polycyclic compounds having a heterocyclic ring(s) and pharmaceutical use thereof” (priority 2003, dated 2012)

Tested on: adipose cells of rats
Experiment: Evaluation of the sugar transporting capacity (2-[14C(U)]-deoxy-D-glucose incorporation)
Type: cell-based
Conditions: insulin 100 nM; isolated rat adipose cells
Procedure: After the decapitation and venesection of 6 male Wistar rats (body weight: 150 to 200 g), an incision was made in the abdomen of each rat to extract 6 g in total of epididymal adipose tissues. The tissues were finely cut into 2 mm×2 mm pieces in 6 ml of KRH (Krebs-Ringer Hepes, composition: 130 mM of sodium chloride, 4.7 mM of potassium chloride, 1.2 mM of potassium dihydrogenphosphate, 1.2 mM of magnesium sulfate, 1 mM of calcium chloride and 25 mM of Hepes, pH=7.6) containing 5% of BSA (bovine serum albumin). 24 mg of collagenase (type I) was added thereto and the digestion treatment was conducted for about 40 minutes to obtain about 6 ml of isolated adipose cells. The collagenase was removed by the buffer exchange. 2% BSA/KRH solution was added to the residue for the re-suspension to obtain 45 ml of an adipose cell suspension.
The sugar transporting capacity of the compound of the present invention was evaluated with reference to a method described in a literature [Annual Review of Biochemistry, Vol. 55, p. 1059 (1986)]. […]
The sugar transporting capacity was evaluated by measuring the quantity of 2-[^14C(U)]-deoxy-D-glucose incorporated per a unit time. […] The quantity of 2-[^14C(U)]-deoxy-D-glucose contained in the adipose cell layer was determined with a liquid scintillation counter to determine the quantity of the incorporated sugar. […]

Substance: insulin
- effect of increasing the sugar-transporting capacity versus insulin-free control group: about 7 times
